Results on 1 compound are retold here after US20230121771A1, “A PHARMACEUTICAL COMBINATION OF AN ARTEMISININ COMPOUND, 5-AMINOLEVULINIC ACID OR METHYL-5-AMINOLEVULINIC ACID AND A CHEMOTHERAPEUTIC AGENT” (JLP Health GmbH, priority 2020, published 2023).

In test [1] the test system is Myc overexpressing tumor organoids. Put plainly: ROS/DHE staining of dissociated CNS-PNET tumor organoids. It is filed as cell-based, human. The settings on record: especially in GFP-positive cancer cells. As to the method:
Treated cells were collected, washed with 1x HBSS (without Ca2+ and Mg2+), incubated with 1mM DHE (Dihydroethidium (Hydroethidine), Invitrogen, D11347) in 1x HBSS for 45 min at 37° C., washed twice and counterstained with DAPI or a viability dye (eBioscience™ Fixable Viability Dye eFluor™ 780, 65-0865-18) for 10 min on ice. Cells were then collected, strained and analysed using flow cytometry for DHE in the red fluorescent spectrum (PE channel).
Cerebral (tumor) organoids were enzymatically and mechanically dissociated using 1x trypsin, 35-45 min incubation at 37° C., and gentle shaking. Organoids were singularised by careful resuspension, addition of differentiation medium and straining (Falcon Round-Bottom Tubes with Cell Strainer Cap, 5 mL, 35 µm nylon mesh cell strainer snap cap). Single cells in suspension were counterstained with DAPI or a viability dye (eBioscience™ Fixable Viability Dye eFluor™ 780, 65-0865-18), and analysed using flow cytometry (BD LSRFortessa HTS Cell Analyzer). The amounts of GFP-positive cells were analyzed.

Test [2] has as its system human glioblastoma-like neoplastic organoid model. Put plainly: Compound profiling in human glioblastoma-like neoplastic organoid model (p53, NF1, PTEN mutated). The settings on record: compound alone. It is filed as cell-based. The protocol: Tumor initiation was induced by either oncogene amplification, using a Sleeping Beauty (SB) transposase, or mutation of tumor suppressor genes, using the CRISPR-Cas9 system in day 10 old embryoid bodies (EBs). Plasmids carrying the transposase as well as GFP and the desired oncogenes or expressing Cas9 nuclease were introduced by electroporation. In brief, a mixture of 1 μg DNA and 100 μl nucleofector solution was added to 10 EBs and transferred to a nucleofection cuvette. The Lonza Nucleofector 2b and the A-023 program were used for electroporation/ nucleofection. […] Cerebral tumor organoids were treated with different compounds and the survival and growth of transformed as well as untransformed neurons was monitored. Fluorescence labeling of tumor cells allowed clear distinguishability of transformed cells as compared to non-labeled throughout the experiment using brightfield microscopy, as well as fluorescence imaging. The transformed tumor tissue and untransformed neurons within the same organoid was monitored using fluorescence imaging, as well as brightfield microscopy throughout the experiment. At the endpoint of the treatment (d5 or d7 respectively), the number of GFP-positive cells was assessed by flow cytometry. […] Brightfield and green fluorescence images were taken from the same area. […]

Test [3] relates to neuroblastoma cells (SHSY5Y), Jurkat cells. The experiment in a line: Cell survival by automated cell counting in SHSY5Y and Jurkat cells. It is filed as cell-based. The settings on record: artemisinin 0.5 µM, 5-ALA 0.25 mM. As to the method: For dosage responses, cells were seeded in 96-wells (25.000/ 96-well, in triplicate -where indicated) and subjected to compounds for 48 h. Cell viability was assessed using automated cell counting (high-throughput flow cytometry), Alamar Blue staining (Invitrogen, DAL1100) or CellTiter-Glo Luminescent Assay (Promega, G7570, according to the manufacturer’s protocol) respectively.

Test [4] concerns glioblastoma cell lines. The experiment in a line: 6-day cell survival assay (Cell Titer Glo 2.0), glioblastoma cell lines. The settings on record: 6-day treatment. It is filed as cell-based. The protocol: Cell survival assays (FIGS. 12-19) were performed in 96-well plates in technical duplicates. Treatments started 24 hours post cell plating and lasted for 6-days prior to cell viability assessment with the Cell Titer Glo 2.0 Luminescent assay (Promega, G9242).
(In general: ATP-based viability assays read luminescence as a measure of living cells.)

Take `NCC(=O)CCC(=O)O` [5-ALA, 5-amino-4-oxopentanoic acid]: the “ROS levels (DHE staining, FACS)” value in test [1] is listed as “slightly induced ROS production”. Moreover, in test [2], the “survival of untransformed and transformed cells” value is given as “little effect on the survival of untransformed cells as well as transformed cells”. In test [3], the “cell viability / cell death” value is recorded as “slightly reduced cell viability”. Also, the “cell survival compared to untreated controls” value in test [4] was “more potent than Methyl-5-ALA”.
